Results published in patent US12037346B2, “Amino-substituted heteroaryls for treating cancers with EGFR mutations” (Nuvalent, Inc., priority 2021, dated 2024).

Experiments:
Assay type in all cases: cell-based
[1] = target: T1, HER2-A775_G776insV-G776C (NCI-H1781 cells) (Homo sapiens, UniProt P04626, G776C/INS775V); experiment: Cellular phosphorylation assay, pHER2 (phospho-ErbB2 Tyr1221/1222 AlphaLISA) in NCI-H1781; conditions: compound incubated for 5 hours
T1 construct: NCI-H1781 is a HER2 exon20 insertion cell line bearing HER2-A775_G776insV-G776C; endogenous in cells; host or cells: NCI-H1781
T1 sequence (P04626 with tags, fused parts or gaps INS775V/G776C): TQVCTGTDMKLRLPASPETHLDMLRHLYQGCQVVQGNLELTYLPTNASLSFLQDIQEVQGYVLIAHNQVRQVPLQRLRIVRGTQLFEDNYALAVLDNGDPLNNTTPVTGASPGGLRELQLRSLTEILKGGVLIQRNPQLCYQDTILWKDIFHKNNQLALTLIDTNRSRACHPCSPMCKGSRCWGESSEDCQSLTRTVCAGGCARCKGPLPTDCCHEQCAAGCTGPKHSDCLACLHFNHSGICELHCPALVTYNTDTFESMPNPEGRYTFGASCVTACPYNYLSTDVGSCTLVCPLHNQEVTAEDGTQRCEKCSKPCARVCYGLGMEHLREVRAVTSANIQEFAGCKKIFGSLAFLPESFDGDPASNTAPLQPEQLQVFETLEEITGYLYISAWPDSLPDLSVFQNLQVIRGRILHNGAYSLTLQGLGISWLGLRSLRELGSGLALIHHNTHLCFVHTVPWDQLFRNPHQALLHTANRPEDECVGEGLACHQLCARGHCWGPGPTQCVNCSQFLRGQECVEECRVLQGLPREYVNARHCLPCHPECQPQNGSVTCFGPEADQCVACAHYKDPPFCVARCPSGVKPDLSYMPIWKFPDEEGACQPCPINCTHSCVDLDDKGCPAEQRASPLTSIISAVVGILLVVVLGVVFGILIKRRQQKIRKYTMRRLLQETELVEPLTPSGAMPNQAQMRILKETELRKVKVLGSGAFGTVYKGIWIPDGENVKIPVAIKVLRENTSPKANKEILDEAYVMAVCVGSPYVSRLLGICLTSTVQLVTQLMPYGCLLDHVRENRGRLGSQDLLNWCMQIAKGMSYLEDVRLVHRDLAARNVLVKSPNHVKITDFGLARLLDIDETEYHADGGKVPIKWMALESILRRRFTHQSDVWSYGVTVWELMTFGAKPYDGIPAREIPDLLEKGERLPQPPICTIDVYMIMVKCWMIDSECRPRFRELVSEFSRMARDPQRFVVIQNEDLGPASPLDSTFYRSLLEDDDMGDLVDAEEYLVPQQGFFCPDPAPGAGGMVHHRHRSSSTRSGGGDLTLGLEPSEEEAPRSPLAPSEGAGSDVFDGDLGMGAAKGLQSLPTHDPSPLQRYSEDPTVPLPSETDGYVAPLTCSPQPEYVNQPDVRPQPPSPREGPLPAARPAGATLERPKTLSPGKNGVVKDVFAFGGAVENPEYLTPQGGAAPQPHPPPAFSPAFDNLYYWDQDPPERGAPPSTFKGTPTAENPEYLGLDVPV
Protocol: (§1) Besides Ba/F3s, two commercially available cell lines were also used. NCI-H1781 is a HER2 exon20 insertion cell line bearing HER2-A775_G776insV-G776C. A431 bears amplification of the wild-type EGFR gene.
Ba/F3 cells were plated at 50,000 cells/well (40 μL), or NCI-H1781 cells or A431 cells were plated at 12,500 cells/well (40 μL), in a 384-well plate for 1 day. Test compounds (40 nL) were then added in a 3-fold dilution series using the TECAN EV0200 liquid handler and incubated for 5 hours. Only for pEGFR analysis in A431, the cells were briefly stimulated with EGF (30 ng/mL) for 15 minutes. Media were removed using Apricot Designs. Phosphoproteins were analyzed using the phospho-EGFR Tyr1068 AlphaLISA kit (“pEGFR”; PerkinElmer #ALSU-PEGFR-B10K;) phospho-ERK Thr202/Tyr204 AlphaLISA kit (“pERK”; PerkinElmer #ALSU-PERK-A10K) or the phospho-ErbB2 Tyr1221/1222 AlphaLISA kit (“pHER2”; PerkinElmer #ALSU-PEB2-A10K;) according to the manufacturer's instructions. Briefly, cells were lysed with lysis buffer (10 μL) containing protease-inhibitor and phosphatase-inhibitor cocktails. The lysates were transferred into a new optical plate, incubated with the acceptor mix (5 μL) for 1.5-2 hours at room temperature in darkness, and then mixed with the donor mix (5 μL) overnight in darkness. Fluorescence was measured on a plate reader using the appropriate AlphaLISA settings. Half-maximal inhibitory concentration (IC50) was calculated from percent inhibition and inhibitor concentration using four-parameter logistic regression.
HER2 is phosphorylated when activated. Therefore, phospho-HER2 indicates HER2 activity in the cells.

[2] = test system: A431 cells (amplification of the wild-type EGFR gene), phospho-ERK Thr202/Tyr204; experiment: Cellular phosphorylation assay, pERK (phospho-ERK Thr202/Tyr204 AlphaLISA) in A431; conditions: Homo sapiens, A-431, compound incubated for 5 hours
Protocol: as §1
(§2) Ba/F3 cells were plated at 50,000 cells/well (40 μL), or NCI-H1781 cells or A431 cells were plated at 12,500 cells/well (40 μL), in a 384-well plate for 1 day. Test compounds (40 nL) were then added in a 3-fold dilution series using the TECAN EV0200 liquid handler and incubated for 5 hours. Only for pEGFR analysis in A431, the cells were briefly stimulated with EGF (30 ng/mL) for 15 minutes. Media were removed using Apricot Designs. Phosphoproteins were analyzed using the phospho-EGFR Tyr1068 AlphaLISA kit (“pEGFR”; PerkinElmer #ALSU-PEGFR-B10K;) phospho-ERK Thr202/Tyr204 AlphaLISA kit (“pERK”; PerkinElmer #ALSU-PERK-A10K) or the phospho-ErbB2 Tyr1221/1222 AlphaLISA kit (“pHER2”; PerkinElmer #ALSU-PEB2-A10K;) according to the manufacturer's instructions. Briefly, cells were lysed with lysis buffer (10 μL) containing protease-inhibitor and phosphatase-inhibitor cocktails. The lysates were transferred into a new optical plate, incubated with the acceptor mix (5 μL) for 1.5-2 hours at room temperature in darkness, and then mixed with the donor mix (5 μL) overnight in darkness. Fluorescence was measured on a plate reader using the appropriate AlphaLISA settings. Half-maximal inhibitory concentration (IC50) was calculated from percent inhibition and inhibitor concentration using four-parameter logistic regression. […]

[3] = target: T2, wild-type EGFR (A431 cells) (Homo sapiens, UniProt P00533); experiment: Cellular phosphorylation assay, pEGFR (phospho-EGFR Tyr1068 AlphaLISA) in A431; conditions: compound incubated for 5 hours, EGF (30 ng/mL) for 15 minutes
T2 construct: A431 bears amplification of the wild-type EGFR gene; endogenous in cells; host or cells: A431
T2 sequence (P00533 25-1210): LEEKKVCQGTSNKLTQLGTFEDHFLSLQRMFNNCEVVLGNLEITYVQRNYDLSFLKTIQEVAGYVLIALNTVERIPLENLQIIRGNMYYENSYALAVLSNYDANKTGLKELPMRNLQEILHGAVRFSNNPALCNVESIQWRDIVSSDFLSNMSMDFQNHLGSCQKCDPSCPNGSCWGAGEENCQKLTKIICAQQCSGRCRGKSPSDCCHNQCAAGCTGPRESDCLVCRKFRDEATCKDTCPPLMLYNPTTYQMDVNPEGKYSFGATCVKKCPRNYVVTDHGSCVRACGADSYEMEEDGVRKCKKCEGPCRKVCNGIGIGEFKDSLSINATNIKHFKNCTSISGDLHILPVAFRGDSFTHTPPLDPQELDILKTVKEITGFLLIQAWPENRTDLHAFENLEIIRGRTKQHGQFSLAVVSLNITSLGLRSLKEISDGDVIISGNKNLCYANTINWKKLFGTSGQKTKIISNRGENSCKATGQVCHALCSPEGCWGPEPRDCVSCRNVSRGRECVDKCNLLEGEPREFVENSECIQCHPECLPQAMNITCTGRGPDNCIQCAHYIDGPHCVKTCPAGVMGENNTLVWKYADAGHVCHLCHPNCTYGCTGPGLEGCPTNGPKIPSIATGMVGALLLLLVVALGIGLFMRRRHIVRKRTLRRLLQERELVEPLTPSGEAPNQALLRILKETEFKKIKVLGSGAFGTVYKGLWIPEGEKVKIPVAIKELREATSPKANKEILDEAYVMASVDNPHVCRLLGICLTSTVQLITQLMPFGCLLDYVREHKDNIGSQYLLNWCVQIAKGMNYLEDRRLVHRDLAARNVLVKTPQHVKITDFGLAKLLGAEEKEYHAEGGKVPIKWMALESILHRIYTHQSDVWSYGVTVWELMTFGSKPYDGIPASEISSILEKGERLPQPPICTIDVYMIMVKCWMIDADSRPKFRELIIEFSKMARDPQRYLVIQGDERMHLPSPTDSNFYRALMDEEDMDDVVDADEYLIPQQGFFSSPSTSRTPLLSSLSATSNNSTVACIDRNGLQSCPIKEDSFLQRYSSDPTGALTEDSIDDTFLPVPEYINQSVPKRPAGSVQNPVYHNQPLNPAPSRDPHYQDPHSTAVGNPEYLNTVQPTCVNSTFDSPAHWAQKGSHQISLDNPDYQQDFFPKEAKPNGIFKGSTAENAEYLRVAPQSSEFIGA
Protocol: as §1, §2

[4] = target: Ba/F3 HER2-YVMA cells (HER2-A775_G776insYVMA) (Homo sapiens, UniProt P04626, DUP772-775, cells depend on it); experiment: Cell proliferation assay (CellTiter-Glo), Ba/F3 HER2-YVMA; conditions: read-out: Ba/F3 HER2-YVMA cell proliferation IC50
Sequence of Ba/F3 HER2-YVMA cells (HER2-A775_G776insYVMA) (P04626 with tags, fused parts or gaps DUP772-775): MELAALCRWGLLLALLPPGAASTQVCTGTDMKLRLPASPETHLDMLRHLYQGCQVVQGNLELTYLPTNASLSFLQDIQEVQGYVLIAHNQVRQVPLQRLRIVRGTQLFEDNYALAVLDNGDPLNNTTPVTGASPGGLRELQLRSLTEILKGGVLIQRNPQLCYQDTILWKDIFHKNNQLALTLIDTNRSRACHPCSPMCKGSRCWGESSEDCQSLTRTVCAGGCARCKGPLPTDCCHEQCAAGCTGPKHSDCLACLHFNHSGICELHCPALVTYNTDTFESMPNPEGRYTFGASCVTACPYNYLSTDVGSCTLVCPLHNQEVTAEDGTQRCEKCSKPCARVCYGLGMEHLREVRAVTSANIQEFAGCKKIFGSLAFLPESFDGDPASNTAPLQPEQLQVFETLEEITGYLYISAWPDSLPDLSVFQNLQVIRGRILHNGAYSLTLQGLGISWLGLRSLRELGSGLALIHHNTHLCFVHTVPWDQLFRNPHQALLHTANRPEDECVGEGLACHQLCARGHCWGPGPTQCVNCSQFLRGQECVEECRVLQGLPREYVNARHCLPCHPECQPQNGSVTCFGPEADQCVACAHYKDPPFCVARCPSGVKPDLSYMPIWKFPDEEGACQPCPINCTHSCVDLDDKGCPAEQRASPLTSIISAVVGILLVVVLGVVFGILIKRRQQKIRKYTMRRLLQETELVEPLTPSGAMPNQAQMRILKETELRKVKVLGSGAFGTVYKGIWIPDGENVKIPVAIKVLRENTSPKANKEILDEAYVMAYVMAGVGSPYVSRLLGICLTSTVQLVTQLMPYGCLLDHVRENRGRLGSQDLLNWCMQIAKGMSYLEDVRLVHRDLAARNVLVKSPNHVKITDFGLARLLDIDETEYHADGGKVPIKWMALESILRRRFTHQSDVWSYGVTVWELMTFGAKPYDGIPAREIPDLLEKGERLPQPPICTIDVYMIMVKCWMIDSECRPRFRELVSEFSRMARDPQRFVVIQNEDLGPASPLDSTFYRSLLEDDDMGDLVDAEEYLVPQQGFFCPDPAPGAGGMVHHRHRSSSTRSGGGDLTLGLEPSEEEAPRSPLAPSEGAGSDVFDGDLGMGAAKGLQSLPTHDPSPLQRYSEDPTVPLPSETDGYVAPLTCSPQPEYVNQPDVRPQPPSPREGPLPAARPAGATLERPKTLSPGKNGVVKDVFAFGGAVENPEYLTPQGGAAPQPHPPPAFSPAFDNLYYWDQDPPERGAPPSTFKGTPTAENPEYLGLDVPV
Protocol: The gene encoding HER2-A775_G776insYVMA (“HER2-YVMA”) was synthesized at GeneRay, cloned into the retroviral construct pMSCV-puro (Biovector), and packaged into retroviral particles. The virus was used to infect Ba/F3 cells (RIKEN) at multiplicity of infection=1 or 10 for 1 day. Infected cells were rescued in media (RPMI-1640 with 10% fetal bovine serum and 1% streptomycin and penicillin) supplemented with mouse IL-3 (10 ng/mL) for 2 days, and stable cell lines were selected by IL-3 withdrawal and puromycin (0.8 μg/mL) for 7 days. Monoclones were selected by single-cell dilution in IL-3-free medium containing puromycin ([…]). Transformation of desired genes was confirmed by Sanger sequencing and western blot using the following antibody: HER2 (CST #2242).
(§3) Ba/F3 cells were plated at 1,000 cells/well (40 μL), or NCI-H1781 or A431 cells were plated at 2,000 cells/well (40 μL), in a 384-well plate for 1 day. Test compounds (40 nL) were then added in a 3-fold dilution series using the TECAN EV0200 liquid handler and incubated for 48 hours (“2 days”), 72 hours (“3 days”), or 48 hours followed by renewal of compound solutions and further incubation for 72 hours (“2 days/3 days”). The 72-hour assay was necessary for NCI-H1781 cells, which are slow-growing, and the resupply of fresh compounds on day 3 obviated the potential confounding effects arising from compound degradation in cell media over 72 hours. Plates were equilibrated at room temperature for 15 minutes followed by addition of 40 μL CellTiter-Glo reagent (Promega). Luminescence was measured on a plate reader. Half-maximal inhibitory concentration (IC50) was calculated from percent inhibition and inhibitor concentration using four-parameter logistic regression. […] In these cases, the regression curve was drawn only for the first inflexion to accurately measure on-target growth inhibitory effect.
(§4) Ba/F3, NCI-H1781, and A431 proliferation is driven by the oncogenes in the same way that cancer cell proliferation in humans is driven by the expression of equivalent oncogenes.

[5] = test system: NCI-H1781 cells (HER2-A775_G776insV-G776C); experiment: Cell proliferation assay (CellTiter-Glo), NCI-H1781; conditions: first inflexion of biphasic curve
Protocol: as §1, §3, §4

Compound	IC50 [1] [µM]	IC50 [2] [µM]	IC50 [3] [µM]	GI50 [4] [µM]	IC50 [5] [µM]
C=CC(=O)N1CCC(c2ncc3ncnc(Nc4ccc(Oc5ccn6ncnc6c5)c(C(F)(F)F)c4F)c3n2)=C[C@@H]1C [Example 62]	< 0.1	≥ 1	≥ 1	< 0.1	–
C=CC(=O)N1CCN(c2ncc3ncnc(Nc4ncc(Oc5ccn6ncnc6c5)c(C)c4F)c3n2)C[C@H]1C [Example 63]	0.1 to 0.5	≥ 1	≥ 1	0.5 to 1	–
C=CC(=O)N1CC=C(c2ncc3ncnc(Nc4cc(C)c(Oc5ccn6ncnc6c5)cc4F)c3n2)C[C@@H]1C [Example 59]	< 0.1	–	≥ 1	0.5 to 1	–
C=CC(=O)N1CCC(c2ncc3ncnc(Nc4ccc(Oc5ccn6ncnc6c5)c(C)c4F)c3n2)=C[C@H]1C [Example 55]	< 0.1	0.1 to 0.5	≥ 1	< 0.1	–
C=CC(=O)N1CC=C(c2ccc3ncnc(Nc4ccc(Oc5ccn6ncnc6c5)c(C)c4F)c3n2)CC1 [Example 5]	< 0.1	≥ 1	≥ 1	< 0.1	0.1 to 0.5
C=CC(=O)N1CC=C(c2ccc3ncnc(Nc4ccc(Oc5ccn6ncnc6c5)c(C)c4)c3n2)C1 [Example 21]	< 0.1	≥ 1	≥ 1	0.1 to 0.5	0.1 to 0.5
C=CC(=O)N1CCC(c2ncc3ncnc(Nc4ccc(Oc5ccn6ncnc6c5)c(C)c4F)c3n2)=C[C@@H]1C [Example 54]	< 0.1	0.1 to 0.5	0.5 to 1	< 0.1	< 0.1
C=CC(=O)N1CCN(c2ncc3ncnc(Nc4cc(C)c(Oc5ccn6ncnc6c5)cc4F)c3n2)C[C@H]1C [Example 50]	< 0.1	–	≥ 1	–	0.1 to 0.5
C=CC(=O)N1CCN(c2ccc3ncnc(Nc4ncc(Oc5ccn6ncnc6c5)c(C)c4F)c3c2F)C[C@H]1C [Example 64]	< 0.1	≥ 1	≥ 1	0.1 to 0.5	–
C=CC(=O)N1CCN(c2ncc3ncnc(Nc4ccc(Oc5ccn6ncnc6c5)c(C)c4F)c3c2F)C[C@H]1C [Example 52]	< 0.1	≥ 1	≥ 1	< 0.1	< 0.1
C=CC(=O)N1CCN(c2ccc3ncnc(Nc4ccc(Oc5ccn6ncnc6c5)c(C)c4F)c3c2F)C[C@H]1C [Example 53]	< 0.1	≥ 1	≥ 1	< 0.1	< 0.1
C=CC(=O)N1CCC=C(c2ncc3ncnc(Nc4ccc(Oc5ccn6ncnc6c5)c(C)c4F)c3n2)CC1 [Example 56]	< 0.1	–	0.5 to 1	< 0.1	–

Second part, the compound after the results:

IC50 [1] [µM]	IC50 [2] [µM]	IC50 [3] [µM]	GI50 [4] [µM]	IC50 [5] [µM]	Compound
< 0.1	≥ 1	≥ 1	0.1 to 0.5	–	C=CC(=O)N1CCCN(c2ccc3ncnc(Nc4ccc(Oc5ccn6ncnc6c5)c(C)c4)c3n2)CC1 [Example 14]
< 0.1	0.1 to 0.5	0.1 to 0.5	< 0.1	< 0.1	C=CC(=O)N1CCC=C(c2ccc3ncnc(Nc4ccc(Oc5ccn6ncnc6c5)c(C)c4)c3n2)CC1 [Example 1, 1-(4-[4-[(3-methyl-4-[[1,2,4]triazolo[1,5-a]pyridin-7-yloxy]phenyl)amino]pyrido[3,2-d]pyrimidin-6-yl]-2,3,6,7-tetrahydroazepin-1-yl)prop-2-en-1-one]
< 0.1	0.5 to 1	0.5 to 1	< 0.1	< 0.1	C=CC(=O)N1CC=C(c2ccc3ncnc(Nc4ccc(Oc5ccn6ncnc6c5)c(C)c4)c3n2)CC1 [Example 12]
< 0.1	0.5 to 1	0.1 to 0.5	< 0.1	< 0.1	C=CC(=O)N1CCN(c2ccc3ncnc(Nc4ccc(Oc5ccn6ncnc6c5)c(C)c4)c3n2)CC1 [Example 9]
< 0.1	≥ 1	≥ 1	< 0.1	–	C=CC(=O)N1CCN(c2ncc3ncnc(Nc4cc(C)c(Oc5cc(C)n6ncnc6c5)cc4F)c3n2)C[C@H]1C [Example 51]
< 0.1	≥ 1	≥ 1	< 0.1	< 0.1	C=CC(=O)N1CCN(c2ncc3ncnc(Nc4ccc(Oc5ccn6ncnc6c5)c(C)c4F)c3n2)C[C@@H]1C [Example 49]
< 0.1	–	≥ 1	0.5 to 1	–	C=CC(=O)N1CC2(C1)CN(c1ccc3ncnc(Nc4ccc(Oc5ccn6ncnc6c5)c(C)c4)c3n1)C2 [Example 23]
< 0.1	≥ 1	0.1 to 0.5	< 0.1	< 0.1	Cc1cc(Nc2ncnc3ccc(C4=CCN(C(=O)/C=C/CN(C)C)CC4)nc23)ccc1Oc1ccn2ncnc2c1 [Example 13]
< 0.1	≥ 1	0.5 to 1	< 0.1	–	C=CC(=O)N1CCC(c2ncc3ncnc(Nc4ccc(Oc5ccn6ncnc6c5)c(C(F)F)c4F)c3n2)=C[C@@H]1C [Example 60]
< 0.1	0.5 to 1	0.5 to 1	< 0.1	< 0.1	CC#CC(=O)N1CC=C(c2ccc3ncnc(Nc4ccc(Oc5ccn6ncnc6c5)c(C)c4)c3n2)CC1 [Example 2, 1-(4-(4-((4-([1,2,4]triazolo[1,5-a]pyridin-7-yloxy)-3-methylphenyl)amino)pyrido[3,2-d]pyrimidin-6-yl)-3,6-dihydropyridin-1(2H)-yl)but-2-yn-1-one]
< 0.1	0.5 to 1	0.5 to 1	< 0.1	< 0.1	C=CC(=O)N1CC=C(c2ncc3ncnc(Nc4ccc(Oc5ccn6ncnc6c5)c(C)c4)c3n2)CC1 [Example 18]
< 0.1	–	≥ 1	0.1 to 0.5	–	C=CC(=O)N1CC=C(c2ccc3ncnc(Nc4ccc(Oc5ccn6ncnc6c5)c(C)c4)c3c2OC)CC1 [Example 19]
